In patent US4385047A, “Antiallergic imidodisulfamides” (SmithKline Beckman Corporation, priority 1981, dated 1983):

Test system: partially purified slow reacting substance of anaphylaxis (SRS-A) obtained from guinea pig lung
Test: Inhibition of SRS-A induced contraction of guinea pig ileum
Conditions: compound concentration 5×10^-6 M, agonist SRS-A 40 μg/ml, 15 min, 5 µM
Protocol: The SRS-A antagonist activity of the compounds of this invention is measured by the ability of the active medicament to inhibit SRS-A induced contraction of guinea pig ileum. In this test system, sections of ileum are resected from guinea pigs and placed in 5 ml. tissue baths containing a modified Tyrode's solution. One end of the tissue is fixed to a glass tissue holder, the other is connected to a force-displacement transducer and the tissue is placed under a tension of 500 mg. Isometric tissue contractions are recorded on a six channel polygraph. Baths are constantly aerated with 95% O2 -5% CO2. After a 20 minute stabilization period a concentration of the appropriate agonist which provides a contraction height of 60-80% of the maximum obtainable to that agonist (as determined from full sequential concentration--response curves in separate experiments) is added to the tissue bath and the response recorded. The procedure is repeated until reproducible responses are obtained. […] Percent inhibition produced by the test compound is calculated by subtracting the mean percentage change in control tissue from the mean percentage change in tissues exposed to the test compound. Additional compounds are then evaluated as long as the tissue remains reproducibly responsive to the agonist. […]

O=C(CS(=O)(=O)c1ccc2c(c1)CN(S(=O)(=O)NS(=O)(=O)N1CCc3ccc(S(=O)(=O)CC(=O)c4ccc(Cl)cc4)cc3C1)CC2)c1ccc(Cl)cc1 [Compound 1, N,N'-bis[7-(4-chlorobenzoylmethylsulfonyl)-1,2,3,4-tetrahydroisoquinolyl]disulfonylimide]
percent antagonism of SRS-A induced contraction: 60%
